System: MCF7
Assay: Antiproliferative activity against human MCF7 cells after 72 hrs by MTT assay
Format: functional, cell-based
Conditions: MCF7, 72 h

IC50 [nM] | SMILES
80 | C/C=C(\C)C(=O)N[C@@H](c1ccccc1)[C@@H](O)C(=O)O[C@H]1C[C@@]2(O)[C@@H](OC(=O)c3ccccc3)[C@@H]3[C@]4(OC(C)=O)CO[C@@H]4C[C@@H](O)[C@@]3(C)C(=O)C(=O)C(=C1C)C2(C)C
10 | CC(=O)O[C@H]1C[C@H]2OC[C@@]2(OC(C)=O)[C@H]2[C@H](OC(=O)c3ccccc3)[C@]3(O)C[C@H](OC(=O)[C@H](O)[C@@H](NC(=O)c4ccccc4)c4ccccc4)C(C)=C([C@@H](O)C(=O)[C@]12C)C3(C)C
64 | CC(=O)O[C@@]12CO[C@@H]1C[C@H](O)[C@@]1(C)C(=O)C(=O)C3=C(C)[C@@H](OC(=O)[C@H](O)[C@@H](NC(=O)c4ccccc4)c4ccccc4)C[C@@](O)([C@@H](OC(=O)c4ccccc4)[C@H]21)C3(C)C

SMILES | IC50 [nM]
C/C=C(\C)C(=O)N[C@@H](c1ccccc1)[C@@H](O)C(=O)O[C@H]1C[C@@]2(O)[C@@H](OC(=O)c3ccccc3)[C@@H]3[C@]4(OC(C)=O)CO[C@@H]4C[C@H](O)[C@@]3(C)C(=O)[C@H](OC(C)=O)C(=C1C)C2(C)C [CEPHALOMANNINE] | 6
